In patent US9988371B2, “Benzimidazole analogues and related methods” (The Arizona Board of Regents, on Behalf of the University …, priority 2014, dated 2018):

Columns and labels:
[1] = target: gatekeeper mutant RETV804M (Homo sapiens, UniProt P07949, V804M); assay: RET/V804M kinase assay; details: biochemical assay; exact potency beyond measurable limit
Procedure: Suitable screening assays for RET and VEGFR2 small molecule kinase inhibitors (from a kinase-directed fragment (KDF) library) were established. The RET kinase assay utilizes an EZ Reader Electrophoresis Mobility Chip Instrument (Caliper Life Science). In the assay, 2 nM recombinant RET enzyme (Invitrogen) is pre-incubated with a small molecule inhibitor or control buffer for 30 min to allow the Type-II kinase inhibitor to trap the DFG-out conformation to which the inhibitors bind. This class of inhibitors is indirectly competitive with ATP, and slow binding kinetics (low kd) allow the inhibitors to appear non-competitive and pseudo-irreversible in nature. Because of the non-competitive nature of these inhibitors, a more biologically relevant concentration of ATP substrate (200 μM) was incorporated in this assay. After 30 min of pre-incubation, a substrate mix containing […], 20 mM MgCl2 and 1.5 μM fluorescently labeled RET substrate peptide (Caliper LS, peptide 22; Perkin Elmer, USA) was added. The conversion level of the RET substrate peptide was then determined utilizing the EZ Reader instrument. Similarly, VEGFR2 and RET/V804M kinase assays have also been established using the same peptide substrate.

pMAPK = pMAPK immunoblot in TT cells; assay type: cell-based, human; details: 1 nM
Procedure: FIG. 3: Photographs of blots showing inhibition of RET protein endogenously expressed in TT cells (human MTC cell line expressing RET/C634W) by indicated concentrations of Pz-1 or vehicle (NT: not treated) and reduced effects in thyroid non-transformed Nthy-ori-3-1 cells. Serum-starved human TT and thyroid non-transformed Nthy-ori-3-1 cell lines were treated for 2 hr with indicated concentrations of Pz-1. 50 μg of total cell lysates were subjected to immunoblotting with anti-phospho-Y1062 (αp1062) and anti-phospho-905 (αpY905) RET antibodies, anti-phospho-MAPK (αpMAPK, T302/Y304), and anti-phospho-SHC (αpSHC, Y317) antibodies. The blots were normalized using anti-RET (αRET) and anti-SHC (αSHC).
The inhibition of RET auto-phosphorylation by Pz-1 was measured in several different cell lines including NIH3T3 fibroblasts expressing RET/C634Y or RET/M918T, TT expressing RET/C634W (MTC), Nthy-ory-3-1 (thyroid, non-transformed with RET; negative control), HEK293/RET/PTC1 (CCDC6-RET that can be found in PTC & lung cancer), HEK293/RET-KIF5B (that can be found in lung cancer), HEK293/RET/PTC3 (NCOA4-RET, that can be found in PTC & lung cancer), and HEK293 transfected with RET/C634R-V804M (FIGS. 1-3). […]
Protein lysates were prepared according to standard procedures. […] Immune complexes were detected with the enhanced chemiluminescence kit (Amersham Pharmacia Biotech, Little Chalfort, UK). […]

Sequence of gatekeeper mutant RETV804M (P07949 29-1114 V804M): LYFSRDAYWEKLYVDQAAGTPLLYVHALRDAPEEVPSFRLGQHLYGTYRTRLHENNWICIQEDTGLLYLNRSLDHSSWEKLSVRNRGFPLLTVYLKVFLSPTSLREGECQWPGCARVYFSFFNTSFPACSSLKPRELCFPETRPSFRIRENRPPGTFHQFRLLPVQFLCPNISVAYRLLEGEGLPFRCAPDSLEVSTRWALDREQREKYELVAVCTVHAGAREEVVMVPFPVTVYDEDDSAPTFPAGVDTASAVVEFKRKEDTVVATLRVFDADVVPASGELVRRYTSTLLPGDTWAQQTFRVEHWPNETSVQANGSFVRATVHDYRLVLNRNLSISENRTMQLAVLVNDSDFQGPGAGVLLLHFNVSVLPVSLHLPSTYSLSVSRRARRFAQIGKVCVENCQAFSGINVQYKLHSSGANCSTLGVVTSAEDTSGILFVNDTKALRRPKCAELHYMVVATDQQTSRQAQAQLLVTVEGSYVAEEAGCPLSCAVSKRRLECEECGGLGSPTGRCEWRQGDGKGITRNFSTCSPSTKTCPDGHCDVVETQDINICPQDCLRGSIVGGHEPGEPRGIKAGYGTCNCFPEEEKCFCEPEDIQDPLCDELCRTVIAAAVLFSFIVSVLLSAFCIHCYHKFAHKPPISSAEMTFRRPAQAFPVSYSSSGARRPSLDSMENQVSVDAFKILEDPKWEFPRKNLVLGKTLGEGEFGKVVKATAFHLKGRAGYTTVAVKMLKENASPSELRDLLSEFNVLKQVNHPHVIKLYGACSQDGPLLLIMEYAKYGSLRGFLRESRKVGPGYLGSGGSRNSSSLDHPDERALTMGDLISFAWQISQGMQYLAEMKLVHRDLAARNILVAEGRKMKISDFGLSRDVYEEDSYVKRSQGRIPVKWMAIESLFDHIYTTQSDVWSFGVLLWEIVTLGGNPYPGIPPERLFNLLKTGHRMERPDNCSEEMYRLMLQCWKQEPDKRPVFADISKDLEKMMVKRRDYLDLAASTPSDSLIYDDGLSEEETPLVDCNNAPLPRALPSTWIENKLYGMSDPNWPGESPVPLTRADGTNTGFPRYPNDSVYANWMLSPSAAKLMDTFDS

Cn1cc(-c2ccc3c(c2)ncn3-c2ccc(CC(=O)Nc3cc(C(C)(C)C)on3)cc2)cn1 [Pz-1, N-(5-(tert-butyl)isoxazol-3-yl)-2-(4-(5-(1-methyl-1H-pyrazol-4-yl)-1H-benzo[d]imidazol-1-yl)phenyl)acetamide]
IC50 [1]: < 1 nM | inhibition of pMAPK (pMAPK): strongly inhibited
